Results reported in PubChem BioAssay (NCI).
Values after ≈ are worked out from the molar mass of the structure shown.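 Growth conditions: 96-well plates. Treatment: test compound, 48 hours, 5 concentrations. Analysis: linear interpolation between bracketing concentrations; unreached endpoints set to highest concentration. Abbreviation: GI50, concentration required for 50% inhibition of growth. TGI marks complete inhibition of growth.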

How the values were obtained:
Assay in all cases: growth of human tumour cells (NCI), 48 h
A549 NSCLC = test system: A549 NSCLC
HCC-2998 colon = test system: HCC-2998 colon
HCT-15 colon = test system: HCT-15 colon
MALME-3M melanoma = test system: MALME-3M melanoma
NCI-H23 lung = test system: NCI-H23 lung
NCI-H460 lung = test system: NCI-H460 lung
SK-MEL-2 melanoma = test system: SK-MEL-2 melanoma
SK-MEL-5 melanoma = test system: SK-MEL-5 melanoma
SN12C renal = test system: SN12C renal
SNB-19 CNS = test system: SNB-19 CNS
UO-31 renal = test system: UO-31 renal

Structure (SMILES)	TGI (A549 NSCLC)	TGI (HCC-2998 colon)	TGI (HCT-15 colon)	TGI (MALME-3M melanoma)	TGI (NCI-H23 lung)	TGI (NCI-H460 lung) [µM]	TGI (SK-MEL-2 melanoma)	TGI (SK-MEL-5 melanoma)	TGI (SN12C renal) [µM]	TGI (SNB-19 CNS)	TGI (UO-31 renal)	GI50 (A549 NSCLC) [µg/mL]	GI50 (HCC-2998 colon) [µg/mL]	GI50 (HCT-15 colon) [µg/mL]	GI50 (MALME-3M melanoma) [µg/mL]	GI50 (NCI-H23 lung) [µg/mL]	GI50 (SK-MEL-2 melanoma) [µg/mL]	GI50 (SK-MEL-5 melanoma) [µg/mL]	GI50 (SNB-19 CNS) [µg/mL]	GI50 (UO-31 renal) [µg/mL]
c1ccc(C2=NN2c2ccccc2)cc1	> 100 µM	> 100 µM	> 100 µM	> 100 µM	> 100 µM	> 100	> 100 µM	> 100 µM	> 100	> 100 µM	> 100 µM	–	–	–	–	–	–	–	–	–
O=C=C=P(c1ccccc1)(c1ccccc1)c1ccccc1	> 100 µM	> 100 µM	> 100 µM	> 100 µM	> 100 µM	> 100	> 100 µM	46.2 µM	> 100	> 100 µM	> 100 µM	–	–	–	–	–	–	–	–	–
O=Cc1cn(CCCCCCCCn2cc(C=O)c3ccccc32)c2ccccc12	> 10 µM	> 10 µM	> 10 µM	> 10 µM	> 10 µM	> 10	> 10 µM	> 10 µM	> 10	> 10 µM	> 10 µM	–	–	–	–	–	–	–	–	–
ICC1CCCO1 (stereo not given)	> 100 µM	> 100 µM	> 100 µM	> 100 µM	> 100 µM	> 100	> 100 µM	> 100 µM	> 100	> 100 µM	–	–	–	–	–	–	–	–	–	–
CCOP(=O)(C/C=C/Cn1ncc(=O)[nH]c1=O)OCC	> 100 µM	> 100 µM	> 100 µM	> 100 µM	–	> 100	> 100 µM	> 100 µM	> 100	> 100 µM	> 100 µM	–	–	–	–	–	–	–	–	–
Cc1nc2nc(C)n(CCN3CCOCC3)c(=O)c2c(-c2cccc([N+](=O)[O-])c2)c1C(=O)CCCCCCCCCCN1CCC(c2ccccc2)(c2ccccc2)CC1	5.24 µg/mL	4.56 µg/mL	3.17 µg/mL	4.22 µg/mL	3.71 µg/mL	–	4.76 µg/mL	4.3 µg/mL	–	4.3 µg/mL	3.52 µg/mL	2.38 (≈ 2.93 µM)	2.37 (≈ 2.91 µM)	1.32 (≈ 1.62 µM)	2.24 (≈ 2.75 µM)	1.81 (≈ 2.22 µM)	2.55 (≈ 3.14 µM)	2.3 (≈ 2.83 µM)	2.28 (≈ 2.8 µM)	1.71 (≈ 2.1 µM)
CC1(C)OCC(CO)(CO)CO1	> 100 µM	> 100 µM	> 100 µM	–	> 100 µM	> 100	–	> 100 µM	> 100	> 100 µM	> 100 µM	–	–	–	–	–	–	–	–	–
